Read-outs that look alike come from different tables or passages of the source.
What was measured:
[1] = tested on: Citrullinated Histone H3 in dHL-60 cells (differentiated HL-60); assay: dHL-60 Cit-H3 ELISA assay; type: cell-based, human; conditions: read-out: Average IC50 Abs
Protocol: Cell culture: HL-60 cells were grown in IMDM+20% FBS+1% PS. The suspension cells were split into 1:5 with fresh media every 2-3 days to maintain cell density between 1×10^5 to 1×10^6 viable cells/mL. HL-60 cells differentiation: HL-60 cells were diluted to 1×10^5 cells/mL and differentiated into neutrophil-like cells with 100 mM DMF treatment for 72 hours in flask at 37° C., 5% CO2. dHL-60 Cells plating: • 1) HL-60 cells were collected, and the plate was centrifuged at 1000 rpm for 5 min. • 2) The HL-60 cells were diluted to 1.25×10^6 cells/mL and plated into a 96-well plate with 80 μL/well (i.e., 1×10^5/well). The plate was then incubated in the incubator (5% CO2, 37° C.) for 30 min to allow cells to adhere. Compound treatment: • 1) Preparation of compound serial dilution (source plate 500×, final DMSO concentration: 0.2%): briefly, compounds were dissolved in 100% DMSO to a concentration of 20 mM (the stock solution) and a 3-fold serial dilution with 8-point doses was performed. • 2) A 10× compound solution was pipetted up and down; and 10 μL/well of compounds were added into each well and incubated for 30 min. Stimulation with 25 μM A23187: • 1) A solution of A23187 (250 μM) in complete IMDM (IMDM+10% FBS+1% PS) containing 150 U/mL S7 Nuclease was prepared. The obtained solution was added 10 μL/well into each well and incubated for 3 h in the incubator (5% CO2, 37° C.). • 2) The dHL-60 cells treated with 10 μL/well complete IMDM without A23187 worked as negative control. Sample preparation: • 1) EDTA (0.5 M, 2 μL/well) were added to all the wells to stop the reaction. • 2) The plate was centrifuged at 1000 rpm for 5 min to collect supernatant. • 3) The supernatant was then diluted at least 1:2 before adding to the ELISA plate for citrullinated H3 analysis.
The standard was reconstituted with 2 mL of Assay buffer to 500 ng/mL. The reconstituted standard was relatively unstable at 4° C. and should be used within 3 hr after reconstitution.
• 1) 100 μL of the standards or diluted samples were added to the wells on the ELISA plate. • 2) The plate was covered with Cover Sheet and incubated for 2 h at room temperaturert on an orbital shaker.
On the day of the assay, the reagent was thawed at room temperaturert. For one plate, 1.2 mL of HRP Conjugate were diluted into 10.8 mL of assay buffer. A diluted HRP Conjugate was prepared shortly before use.
• 1) The wells were empties and rinsed four times with 1× wash buffer with 300 μL/well (Low speed). The plate was inverted between wash steps to empty the plate. After the last wash, the inverted plate was gently tapped on absorbent paper to remove the residual wash buffer. • 2) 100 μL of the HRP Conjugate working solution were added to each well of the plate. • 3) The plate was covered with cover sheet and incubated for 1 h at RT on an orbital shaker.
• 1) The wells were empties and rinsed four times with 1× wash buffer with 300 μL/well (low speed). The plate was inverted between wash steps to empty the plate. […] 100 uL of HRP STOP solution were added to each well of the plate.
• 1) Wipe the bottom of the plate with a clean tissue to remove fingerprints, dirt, etc. • 2) Read the plate at a wavelength of 450 nm.
The percent (%) inhibition at each concentration of compound was calculated based on and relative to the signal in the HPE and ZPE wells contained within each assay plate. The HPE wells worked as […], and the ZPE wells didn't contain any compound but rather DMSO (final concentration=0.1%) as […]. The concentrations and % inhibition values for tested compounds were plotted and the concentration of compound required for 50% inhibition (IC50) was determined with a Four-parameter logistic dose response equation. The endpoint value (IC50) for the reference peptide/compound was evaluated in each experiment as a quality control measure. If the endpoint value is within 3-fold of the expected value then the experiment is deemed acceptable. […]

[2] = molecular target: Protein arginine deiminase 4 (PAD4) (Homo sapiens, UniProt Q9UM07); assay: PAD4 ammonia release assay; type: biochemical
Sequence of Protein arginine deiminase 4 (PAD4) (Q9UM07 whole entry): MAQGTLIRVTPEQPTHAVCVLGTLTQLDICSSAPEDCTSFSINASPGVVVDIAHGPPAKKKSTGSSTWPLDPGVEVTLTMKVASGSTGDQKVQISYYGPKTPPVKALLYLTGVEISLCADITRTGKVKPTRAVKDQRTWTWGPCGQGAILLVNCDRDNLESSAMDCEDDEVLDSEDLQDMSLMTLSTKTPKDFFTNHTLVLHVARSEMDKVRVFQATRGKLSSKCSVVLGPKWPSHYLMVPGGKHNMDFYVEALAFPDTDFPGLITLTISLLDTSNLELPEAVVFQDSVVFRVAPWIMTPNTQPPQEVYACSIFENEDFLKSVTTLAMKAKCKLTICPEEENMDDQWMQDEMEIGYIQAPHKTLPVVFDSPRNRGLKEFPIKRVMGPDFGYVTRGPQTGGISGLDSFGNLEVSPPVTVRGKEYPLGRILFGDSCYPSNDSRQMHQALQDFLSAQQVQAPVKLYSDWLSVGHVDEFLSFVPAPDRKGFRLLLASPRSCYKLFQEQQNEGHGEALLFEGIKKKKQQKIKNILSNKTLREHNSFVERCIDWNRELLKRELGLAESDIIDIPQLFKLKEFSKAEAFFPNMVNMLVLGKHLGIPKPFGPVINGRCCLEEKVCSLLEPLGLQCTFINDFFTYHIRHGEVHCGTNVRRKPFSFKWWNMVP
Procedure, shortened: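 PAD4 (20 nM, 2× working solution) was preincubated with compound for 15 min at RT in 100 mM HEPES pH 8.0, 2 mM CaCl2, 50 mM NaCl, 0.1 mM TCEP, BSA at 1.25% DMSO. BAEE (600 μM, 2× mix) reacted 60 min, then OPA/DTT/EDTA detection for 120 min. IC50 came from a 4-parameter fit, normalized to 50 μM reference (100%) and DMSO (0%).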

[3] = Homo sapiens, HL-60, 3 h, stimulation with 25 μM A23187 for 3 h
[4] = PAD4 ammonia release assay, BAEE substrate, 60 min at RT, read-out: Average IC50 Abs
[5] = Homo sapiens, HL-60, stimulation with 25 μM A23187 for 3 h

Structure (SMILES)	IC50 [1, 3]	IC50 [2, 4]	IC50 ([1]; stimulation with 25 μM A23187 for 3 h)	IC50 ([2]; PAD4 activity comparison, read-out: PAD4 Ammonia assay IC50)	IC50 [1, 5]
CCC1CN(CCCO)c2cccc3cc(-c4nc5cc(C(=O)N6C[C@H](N)C[C@@H](F)C6)cc(OC)c5n4C)n1c23 (single isomer, unassigned) [Example 81]		500 to 5000 nM	> 5000 nM		
Cn1c(-c2cc3ccc(C#N)c4c3n2[C@@H](C2CC2)CN4)nc2cc(C(=O)N3C[C@H]4CC[C@@H]3[C@@H]4N)cc(F)c21 (single isomer, unassigned) [Example 115]	≤ 100 nM	≤ 100 nM			
COc1cc(C(=O)N2CCC[C@@H](N)C2)cc2nc(-c3cc4cccc5c4n3CCN5)n(C)c12 [Example 2, (R)-(3-aminopiperidin-1-yl)(2-(2,3-dihydro-1H-pyrrolo[1,2,3-de]quinoxalin-5-yl)-7-methoxy-1-methyl-1H-benzo[d]imidazol-5-yl)methanone]	500 to 5000 nM	> 5000 nM		5430 nM	
COc1cc(C(=O)N2CCC[C@@H](N)C2)cc2nc(-c3cc4cccc5c4n3CCN5CCO)n(C)c12 [Example 10, (R)-(3-aminopiperidin-1-yl)(2-(1-(2-hydroxyethyl)-2,3-dihydro-1H-pyrrolo[1,2,3-de]quinoxalin-5-yl)-7-methoxy-1-methyl-1H-benzo[d]imidazol-5-yl)methanone]		500 to 5000 nM			500 to 5000 nM
COc1cc(C(=O)N2CCC[C@@H](N)C2)cc2nc(-c3cc4cccc5c4n3CCN5CCCO)n(C)c12 [Example 12, (R)-(3-aminopiperidin-1-yl)(2-(1-(3-hydroxypropyl)-2,3-dihydro-1H-pyrrolo[1,2,3-de]quinoxalin-5-yl)-7-methoxy-1-methyl-1H-benzo[d]imidazol-5-yl)methanone]	500 to 5000 nM	100 to 500 nM			
COc1cc(C(=O)N2C[C@H](N)C[C@@H](F)C2)cc2nc(-c3cc4cccc5c4n3CCN5CCCO)n(C)c12 [Example 13]	500 to 5000 nM	100 to 500 nM			
CCn1cc(Cn2c(-c3cc4cccc5c4n3CCN5CCCO)nc3cc(C(=O)N4C[C@H](N)C[C@@H](F)C4)cc(OC)c32)cn1 [Example 34, ((3R,5R)-3-amino-5-fluoropiperidin-1-yl)(1-((1-ethyl-1H-pyrazol-4-yl)methyl)-2-(1-(3-hydroxypropyl)-2,3-dihydro-1H-pyrrolo[1,2,3-de]quinoxalin-5-yl)-7-methoxy-1H-benzo[d]imidazol-5-yl)methanone]		≤ 100 nM			500 to 5000 nM
COc1cc(C(=O)N2C[C@H](N)C[C@@H](F)C2)cc2nc(-c3cc4cccc5c4n3CCN5CCCO)n(Cc3cccs3)c12 [Example 37, ((3R,5R)-3-amino-5-fluoropiperidin-1-yl)(2-(1-(3-hydroxypropyl)-2,3-dihydro-1H-pyrrolo[1,2,3-de]quinoxalin-5-yl)-7-methoxy-1-(thiophen-2-ylmethyl)-1H-benzo[d]imidazol-5-yl)methanone]	100 to 500 nM	≤ 100 nM			
CCn1cc(Cn2c(-c3cc4cccc5c4n3CCN5CCCO)nc3cc(C(=O)N4C[C@H](N)C[C@@H](F)C4)cc(F)c32)cn1 [Example 38, ((3R,5R)-3-amino-5-fluoropiperidin-1-yl)(1-((1-ethyl-1H-pyrazol-4-yl)methyl)-7-fluoro-2-(1-(3-hydroxypropyl)-2,3-dihydro-1H-pyrrolo[1,2,3-de]quinoxalin-5-yl)-1H-benzo[d]imidazol-5-yl)methanone]	500 to 5000 nM	≤ 100 nM			

More lines, main results first:

IC50 [1, 3]	IC50 [2, 4]	IC50 ([1]; stimulation with 25 μM A23187 for 3 h)	IC50 ([2]; PAD4 activity comparison, read-out: PAD4 Ammonia assay IC50)	Structure (SMILES)	IC50 [1, 5]
≤ 100 nM	≤ 100 nM			Cn1c(-c2cc3cccc4c3n2C(C2CC2)CN4CCCO)nc2cc(C(=O)N3C[C@H]4CC[C@@H]3[C@@H]4N)cc(F)c21 (mixture of isomers) [Example 111, [(1R,4R,7R)-7-amino-2-azabicyclo[2.2.1]heptan-2-yl]-[2-[11-cyclopropyl-9-(3-hydroxypropyl)-1,9-diazatricyclo[6.3.1.04,12]dodeca-2,4(12), 5,7-tetraen-2-yl]-7-fluoro-1-methyl-benzimidazol-5-yl]methanone]	
≤ 100 nM	≤ 100 nM			Cn1c(-c2cc3ccc(C#N)c4c3n2C(C2CC2)CN4)nc2cc(C(=O)N3C[C@H]4CC[C@@H]3[C@@H]4N)cc(F)c21 (mixture of isomers) [Example 114, 5-(5-((1R,4R,7R)-7-amino-2-azabicyclo[2.2.1]heptane-2-carbonyl)-7-fluoro-1-methyl-1H-benzo[d]imidazol-2-yl)-3-cyclopropyl-2,3-dihydro-1H-pyrrolo[1,2,3-de]quinoxaline-9-carbonitrile]	
≤ 100 nM	≤ 100 nM			Cn1c(-c2cc3cccc4c3n2[C@@H](C2CC2)CN4)nc2cc(C(=O)N3C[C@H]4CC[C@@H]3[C@@H]4N)cc(F)c21 (single isomer, unassigned) [Example 110]	
≤ 100 nM	≤ 100 nM			Cn1c(-c2cc3cccc4c3n2[C@@H](C2CC2)CN4CCCO)nc2cc(C(=O)N3C[C@H]4CC[C@@H]3[C@@H]4N)cc(F)c21 (single isomer, unassigned) [Example 112]	
100 to 500 nM	100 to 500 nM			COc1cc(C(=O)N2C[C@H](N)C[C@@H](F)C2)cc2nc(-c3cc4cccc5c4n3CCN5CCCO)n(CC(F)(F)F)c12 [Example 23, ((3R,5R)-3-amino-5-fluoropiperidin-1-yl)(2-(1-(3-hydroxypropyl)-2,3-dihydro-1H-pyrrolo[1,2,3-de]quinoxalin-5-yl)-7-methoxy-1-(2,2,2-trifluoroethyl)-1H-benzo[d]imidazol-5-yl)methanone]	
500 to 5000 nM	100 to 500 nM			CCn1cc(Cn2c(-c3cc4cccc5c4n3CCN5)nc3cc(C(=O)N4C[C@H](N)C[C@@H](F)C4)cc(F)c32)cn1 [Example 40, ((3R,5R)-3-amino-5-fluoropiperidin-1-yl)(2-(2,3-dihydro-1H-pyrrolo[1,2,3-de]quinoxalin-5-yl)-1-((1-ethyl-1H-pyrazol-4-yl)methyl)-7-fluoro-1H-benzo[d]imidazol-5-yl)methanone]	
500 to 5000 nM	100 to 500 nM			CCn1cc(Cn2c(-c3cc4cccc5c4n3CCN5CCCO)nc3cc(C(=O)N4C[C@H]5CC[C@@H]4[C@@H]5N)cc(F)c32)cn1 [Example 42, ((1R,4R,7R)-7-amino-2-azabicyclo[2.2.1]heptan-2-yl)(1-((1-ethyl-1H-pyrazol-4-yl)methyl)-7-fluoro-2-(1-(3-hydroxypropyl)-2,3-dihydro-1H-pyrrolo[1,2,3-de]quinoxalin-5-yl)-1H-benzo[d]imidazol-5-yl)methanone]	
500 to 5000 nM	≤ 100 nM			COc1cc(C(=O)N2C[C@H](N)C[C@@H](F)C2)cc2nc(-c3cc4cccc5c4n3CCN5CCCO)n(Cc3cnn(C)c3)c12 [Example 43, ((3R,5R)-3-amino-5-fluoropiperidin-1-yl)(2-(1-(3-hydroxypropyl)-2,3-dihydro-1H-pyrrolo[1,2,3-de]quinoxalin-5-yl)-7-methoxy-1-((1-methyl-1H-pyrazol-4-yl)methyl)-1H-benzo[d]imidazol-5-yl)methanone]	

Source: patent US20250136607A1 (REGOR PHARMACEUTICALS, INC., priority 2021, published 2025)
